Measurements reported in paper PMC8830019, “A sensitive, accurate, and high-throughput gluco-oligosaccharide oxidase-based HRP colorimetric method for assaying lytic polysaccharide monooxygenase activity” (Biotechnology for Biofuels and Bioproducts, 2022).

Molecular target: T1, SsGOOX (recombinant gluco-oligosaccharide oxidase) (Sarocladium strictum, UniProt Q6PW77)
T1 construct: gene gluO; T. reesei cbh1 signal peptide at N-terminus, C-terminal 6xHis; codon-optimised synthetic gene, secreted by Trichoderma reesei QM9414
T1 sequence (Q6PW77 26-499): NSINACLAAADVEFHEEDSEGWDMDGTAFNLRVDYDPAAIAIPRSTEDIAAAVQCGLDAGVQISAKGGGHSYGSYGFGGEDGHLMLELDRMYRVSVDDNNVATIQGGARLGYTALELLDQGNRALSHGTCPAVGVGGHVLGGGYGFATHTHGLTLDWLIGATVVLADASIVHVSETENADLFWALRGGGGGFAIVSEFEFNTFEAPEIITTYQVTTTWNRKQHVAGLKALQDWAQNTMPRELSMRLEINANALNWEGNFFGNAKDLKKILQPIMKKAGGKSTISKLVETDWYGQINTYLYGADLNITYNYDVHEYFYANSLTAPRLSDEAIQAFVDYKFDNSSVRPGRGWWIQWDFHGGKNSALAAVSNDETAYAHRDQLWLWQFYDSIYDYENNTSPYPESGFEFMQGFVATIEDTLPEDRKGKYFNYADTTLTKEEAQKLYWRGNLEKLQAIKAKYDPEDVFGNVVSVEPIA
Experiment: HRP-coupled colorimetric H2O2 assay (4-AAP / DCHBS, A515), modified Hill's model with substrate inhibition
Type: biochemical
Details: pH 7.0 phosphate, room temperature (about 26 C), 10 nM enzyme, 0.02-5 mM cellobiose; Hill-type fit with substrate inhibition; substrate inhibition constant; second site

SMILES: OC[C@H]1O[C@@H](O[C@H]2[C@H](O)[C@@H](O)C(O)O[C@@H]2CO)[C@H](O)[C@@H](O)[C@@H]1O (stereo partly shown) [cellobiose]
- Ki: 995 µM
